The values below come from paper PMC7048748, “Anxiolytic Drug FGIN-1-27 Ameliorates Autoimmunity by Metabolic Reprogramming of Pathogenic Th17 Cells” (Scientific Reports, 2020).

For the assay, the system named is eIF2α. In words: Western blot for phosphorylated eIF2α. Type of assay: cell-based, mouse. The settings on record: 24 hours, compared to DMSO controls. On the procedure: (a) MA-plot showing shrunken log2 fold-changes of detected genes between the DMSO and FGIN-1-27 RNA-seq samples, ranked by average normalized count. Red dots indicate differentially expressed genes at adjusted p-value <0.05. (b) Transcript levels for the indicated genes after 24 hours of treatment with DMSO or FGIN-1-27 quantified by qPCR. The error bars represent SD. (c) Western blot analysis for phosphorylated eIF2α and ATF4 24 hours after treatment with DMSO or FGIN-1-27 (5 and 10 µM). Data are representative of 3 independent experiments. (d) Amino acids in Th17 cells measured 72 hours after treatment with FGIN-1-27. The error bars represent SD. (e) ROS was measured using cell permeant reagent 2′,7′ –dichlorofluorescin diacetate (DCFDA) at 24 hours following treatment with FGIN-1-27. Filled grey histogram-DMSO, dotted line-FGIN-1-27 (10 µM) and dashed line indicates FGIN-1-27 (5 µM). […] Data are normalized using DMSO treated cells as 100% and the error bars represent SD.
Cell lysates were prepared by lysis in RIPA buffer containing protease and phosphatase inhibitors and immunoblotting was performed by standard methods.
(a) W estern blot analysis for phosphorylated eIF2α and ATF4 24 hours after treatment
with DMSO or FGIN-1-27 (5 and 10 µM). […]
(a) Indicated sterols were measured in Th17 cells treated with DMSO or FGIN-1-27 for […]
For orientation: A western blot detects proteins with antibodies after separation by electrophoresis.

Each structure is given as a SMILES string.

For `CCCCCCN(CCCCCC)C(=O)Cc1c(-c2ccc(F)cc2)[nH]c2ccccc12` [FGIN-1-27, N, N-di-n-hexyl 2-(4-fluorophenyl) indole-3-acetamide], the “increase in eIF2α phosphorylation” value is 4.5 fold.
